Activity calls are given as the source filed them. The rule behind the calls is not given here.

The test system of this data set is CCRIS mutagenicity, Ames/micronucleus/aberration tests. The data set is described as follows: CCRIS mutagenicity studies.
Setting [1] is: Test System: AMES SALMONELLA TYPHIMURIUM, Strain/Indicator: TA98, Metabolic Activation: NONE, Method: PREINCUBATION
The mark [2] stands for this setting: Test System: AMES SALMONELLA TYPHIMURIUM, Strain/Indicator: TA100, Metabolic Activation: NONE, Method: PREINCUBATION

As to `Oc1cccc(O)c1`, the mutagenic call (End Point: In vitro chromosomal aberrations, Test System: Chinese hamster lung (CHL/IU) cells, Metabolic Activation: Rat, Liver, S9, Phenobarbital and 5,6-benzoflavone) was “active; positive (structural changes and ploidy). weak response”; the mutagenic call (End Point: MORPHOLOGICAL TRANSFORMATION, Test System: SYRIAN HAMSTER EMBRYO CELLS (SHE)) was “inactive; negative”; the mutagenic call (End Point: MORPHOLOGICAL TRANSFORMATION, Test System: SYRIAN HAMSTER EMBRYO CELLS (SHE), Metabolic Activation: NONE) is “inactive; negative”; the mutagenic call (Test System: AMES SALMONELLA TYPHIMURIUM, Strain/Indicator: TA97, Metabolic Activation: NONE, Method: PREINCUBATION) was “inactive; negative”; the mutagenic call (Test System: AMES SALMONELLA TYPHIMURIUM, Strain/Indicator: TA97, Metabolic Activation: RAT, LIVER, S-9, PHENOBARBITAL, Method: PREINCUBATION) is “inactive; negative”; the mutagenic call (Test System: AMES SALMONELLA TYPHIMURIUM, Strain/Indicator: TA98, Metabolic Activation: HAMSTER, LIVER, S-9, AROCLOR 1254 (10%), Method: PREINCUBATION) was “inactive; negative”. Besides, the mutagenic call is “inactive; negative” (Test System: AMES SALMONELLA TYPHIMURIUM, Strain/Indicator: TA98, Metabolic Activation: NONE); “inactive; negative” under setting [1]; “inactive; negative” (Test System: AMES SALMONELLA TYPHIMURIUM, Strain/Indicator: TA98, Metabolic Activation: RAT, LIVER, S-9, AROCLOR 1254 (10%), Method: PREINCUBATION); “inactive; negative” (Test System: AMES SALMONELLA TYPHIMURIUM, Strain/Indicator: TA98, Metabolic Activation: RAT, LIVER, S-9, PHENOBARBITAL, Method: PREINCUBATION); “inactive; negative” (Test System: AMES SALMONELLA TYPHIMURIUM, Strain/Indicator: TA98, Metabolic Activation: RAT, LIVER, S-9, SODIUM PHENOBARBITAL AND 5,6-BENZOFLAVONE, Method: PREINCUBATION); “active; positive” (Test System: AMES SALMONELLA TYPHIMURIUM, Strain/Indicator: TA98, Metabolic Activation: RAT, LIVER, S-9, Method: STANDARD PLATE). Moreover, the mutagenic call is “inactive; negative” (Test System: AMES SALMONELLA TYPHIMURIUM, Strain/Indicator: TA98, Metabolic Activation: S-9); “inactive; negative” (Test System: AMES SALMONELLA TYPHIMURIUM, Strain/Indicator: TA100, Metabolic Activation: HAMSTER, LIVER, S-9, AROCLOR 1254 (10%), Method: PREINCUBATION); “inactive; negative” under setting [2]; “inactive; negative” (Test System: AMES SALMONELLA TYPHIMURIUM, Strain/Indicator: TA100, Metabolic Activation: RAT, LIVER, S-9, AROCLOR 1254 (10%), Method: PREINCUBATION); “inactive; negative” (Test System: AMES SALMONELLA TYPHIMURIUM, Strain/Indicator: TA100, Metabolic Activation: RAT, LIVER, S-9, SODIUM PHENOBARBITAL AND 5,6-BENZOFLAVONE, Method: PREINCUBATION); “inactive; negative” (Test System: AMES SALMONELLA TYPHIMURIUM, Strain/Indicator: TA102, Metabolic Activation: NONE, Method: PREINCUBATION). The mutagenic call is, setting by setting: (Test System: AMES SALMONELLA TYPHIMURIUM, Strain/Indicator: TA102, Metabolic Activation: RAT, LIVER, S-9, SODIUM PHENOBARBITAL AND 5,6-BENZOFLAVONE, Method: PREINCUBATION) “inactive; negative”; (Test System: AMES SALMONELLA TYPHIMURIUM, Strain/Indicator: TA104, Metabolic Activation: NONE, Method: PREINCUBATION) “inactive; negative”; (Test System: AMES SALMONELLA TYPHIMURIUM, Strain/Indicator: TA104, Metabolic Activation: RAT, LIVER, S-9, SODIUM PHENOBARBITAL AND 5,6-BENZOFLAVONE, Method: PREINCUBATION) “inactive; negative”; (Test System: AMES SALMONELLA TYPHIMURIUM, Strain/Indicator: TA1535, Metabolic Activation: HAMSTER, LIVER, S-9, AROCLOR 1254 (10%), Method: PREINCUBATION) “inactive; negative”; (Test System: AMES SALMONELLA TYPHIMURIUM, Strain/Indicator: TA1535, Metabolic Activation: NONE, Method: PREINCUBATION) “inactive; negative”; (Test System: AMES SALMONELLA TYPHIMURIUM, Strain/Indicator: TA1535, Metabolic Activation: RAT, LIVER, S-9, AROCLOR 1254 (10%), Method: PREINCUBATION) “inactive; negative”. Moreover, the mutagenic call is “inactive; negative” (Test System: AMES SALMONELLA TYPHIMURIUM, Strain/Indicator: TA1535, Metabolic Activation: RAT, LIVER, S-9, SODIUM PHENOBARBITAL AND 5,6-BENZOFLAVONE, Method: PREINCUBATION); “inactive; negative” (Test System: AMES SALMONELLA TYPHIMURIUM, Strain/Indicator: TA1537, Metabolic Activation: HAMSTER, LIVER, S-9, AROCLOR 1254 (10%), Method: PREINCUBATION); “inactive; negative” (Test System: AMES SALMONELLA TYPHIMURIUM, Strain/Indicator: TA1537, Metabolic Activation: NONE, Method: PREINCUBATION); “inactive; negative” (Test System: AMES SALMONELLA TYPHIMURIUM, Strain/Indicator: TA1537, Metabolic Activation: RAT, LIVER, S-9, AROCLOR 1254 (10%), Method: PREINCUBATION); “inactive; negative” (Test System: AMES SALMONELLA TYPHIMURIUM, Strain/Indicator: TA1537, Metabolic Activation: RAT, LIVER, S-9, SODIUM PHENOBARBITAL AND 5,6-BENZOFLAVONE, Method: PREINCUBATION); “active; positive” (Test System: E. COLI, Strain/Indicator: B/R WP2 (TRP-HCR-), Metabolic Activation: RAT, LIVER, S-9, Method: STANDARD PLATE). For the same compound, the mutagenic call reads like this: (Test System: E. COLI, Strain/Indicator: WP2UVRA/PKM101, Metabolic Activation: NONE, Method: PREINCUBATION) “inactive; negative”; (Test System: E. COLI, Strain/Indicator: WP2UVRA/PKM101, Metabolic Activation: RAT, LIVER, S-9, SODIUM PHENOBARBITAL AND 5,6-BENZOFLAVONE, Method: PREINCUBATION) “inactive; negative”; (Test System: E. COLI, Strain/Indicator: WP2UVRA, Metabolic Activation: NONE, Method: PREINCUBATION) “inactive; negative”; (Test System: E. COLI, Strain/Indicator: WP2UVRA, Metabolic Activation: RAT, LIVER, S-9, SODIUM PHENOBARBITAL AND 5,6-BENZOFLAVONE, Method: PREINCUBATION) “inactive; negative”; (Test System: MOUSE LYMPHOMA, Strain/Indicator: L5178Y (TK+/TK-), Metabolic Activation: NONE, Method: SUSPENSION/PLATE) “active; positive”.
As for `Cc1c2cc(CO)ccc2nc2c3c(ccc12)[C@H](O)[C@@H](O)C=C3`, the mutagenic call (Test System: AMES SALMONELLA TYPHIMURIUM, Strain/Indicator: TA100, Metabolic Activation: RAT, LIVER, S-9, AROCLOR 1254, Method: STANDARD PLATE) was “active; positive”.
Consider `Nc1ccc2[nH]c3ccccc3c2c1[N+](=O)[O-]`, for which the mutagenic call (Test System: AMES SALMONELLA TYPHIMURIUM, Strain/Indicator: TA98, Metabolic Activation: NONE, Method: STANDARD PLATE) is “active; positive”; the mutagenic call (Test System: AMES SALMONELLA TYPHIMURIUM, Strain/Indicator: TA98, Metabolic Activation: RAT, LIVER, S-9, PHENOBARBITAL, Method: STANDARD PLATE) is “active; positive”; the mutagenic call (Test System: AMES SALMONELLA TYPHIMURIUM, Strain/Indicator: TA100, Metabolic Activation: NONE, Method: STANDARD PLATE) is “active; positive”; the mutagenic call (Test System: AMES SALMONELLA TYPHIMURIUM, Strain/Indicator: TA100, Metabolic Activation: RAT, LIVER, S-9, PHENOBARBITAL, Method: STANDARD PLATE) was “inactive; negative”; the mutagenic call (Test System: AMES SALMONELLA TYPHIMURIUM, Strain/Indicator: TA1537, Metabolic Activation: NONE, Method: STANDARD PLATE) was “active; positive”; the mutagenic call (Test System: AMES SALMONELLA TYPHIMURIUM, Strain/Indicator: TA1537, Metabolic Activation: RAT, LIVER, S-9, PHENOBARBITAL, Method: STANDARD PLATE) is “active; positive”. In addition, the mutagenic call reads like this: (Test System: AMES SALMONELLA TYPHIMURIUM, Strain/Indicator: TA1538, Metabolic Activation: NONE, Method: STANDARD PLATE) “active; positive”; (Test System: AMES SALMONELLA TYPHIMURIUM, Strain/Indicator: TA1538, Metabolic Activation: RAT, LIVER, S-9, PHENOBARBITAL, Method: STANDARD PLATE) “active; positive”; (Test System: AMES SALMONELLA TYPHIMURIUM, Strain/Indicator: TA1977, Metabolic Activation: NONE, Method: STANDARD PLATE) “active; positive”; (Test System: AMES SALMONELLA TYPHIMURIUM, Strain/Indicator: TA1977, Metabolic Activation: RAT, LIVER, S-9, PHENOBARBITAL, Method: STANDARD PLATE) “active; positive”.
Regarding `CN(C)Cc1ccccc1`, the mutagenic call was “inactive; negative” under setting [1]; “inactive; negative” (Test System: AMES SALMONELLA TYPHIMURIUM, Strain/Indicator: TA98, Metabolic Activation: RAT, LIVER, S-9, PCB, Method: PREINCUBATION); “inactive; negative” under setting [2]; “inactive; negative” (Test System: AMES SALMONELLA TYPHIMURIUM, Strain/Indicator: TA100, Metabolic Activation: RAT, LIVER, S-9, PCB, Method: PREINCUBATION).
Take `OCC12OOC1(CO)c1ccccc1O2` (stereo unspecified): the mutagenic call under setting [2] was “inactive; negative”.

The values are drawn from PubChem BioAssay AID1259407 (Chemical Carcinogenesis Research Information System (CCRIS), 2018).
